Data on 35 molecules can be found in US20230391739A1, “ARYL DERIVATIVES FOR TREATING TRPM3 MEDIATED DISORDERS” (Katholieke Universiteit Leuven, priority 2020, published 2023).

Some results are limits rather than exact numbers.

This assay addresses T1, mouse TRPM3α2 (mTRPM3) ion channel (Mus musculus, UniProt J9SQF3).
T1 construct: expressed in transfected cells; host or cells: flip-in HEK293
Kind of assay: TRPM3 ion channel driven Ca2+ uptake, Fluo-4 AM assay, PS-stimulated (mTRPM3). Type of assay: cell-based. As to conditions: TRPM3 overexpressing flip-in HEK293 cells stimulated with Pregnenolone sulfate (PS) 50 μM, activity ranges A, B, C. Put shortly:
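Ca²⁺ influx through mouse TRPM3α2, opened by 50 μM pregnenolone sulfate, was tracked with Fluo-4 AM in stably transfected HEK293 cells read directly after seeding onto pre-dispensed compound.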

T1 sequence (J9SQF3 1-1709 isoform J9SQF3-12): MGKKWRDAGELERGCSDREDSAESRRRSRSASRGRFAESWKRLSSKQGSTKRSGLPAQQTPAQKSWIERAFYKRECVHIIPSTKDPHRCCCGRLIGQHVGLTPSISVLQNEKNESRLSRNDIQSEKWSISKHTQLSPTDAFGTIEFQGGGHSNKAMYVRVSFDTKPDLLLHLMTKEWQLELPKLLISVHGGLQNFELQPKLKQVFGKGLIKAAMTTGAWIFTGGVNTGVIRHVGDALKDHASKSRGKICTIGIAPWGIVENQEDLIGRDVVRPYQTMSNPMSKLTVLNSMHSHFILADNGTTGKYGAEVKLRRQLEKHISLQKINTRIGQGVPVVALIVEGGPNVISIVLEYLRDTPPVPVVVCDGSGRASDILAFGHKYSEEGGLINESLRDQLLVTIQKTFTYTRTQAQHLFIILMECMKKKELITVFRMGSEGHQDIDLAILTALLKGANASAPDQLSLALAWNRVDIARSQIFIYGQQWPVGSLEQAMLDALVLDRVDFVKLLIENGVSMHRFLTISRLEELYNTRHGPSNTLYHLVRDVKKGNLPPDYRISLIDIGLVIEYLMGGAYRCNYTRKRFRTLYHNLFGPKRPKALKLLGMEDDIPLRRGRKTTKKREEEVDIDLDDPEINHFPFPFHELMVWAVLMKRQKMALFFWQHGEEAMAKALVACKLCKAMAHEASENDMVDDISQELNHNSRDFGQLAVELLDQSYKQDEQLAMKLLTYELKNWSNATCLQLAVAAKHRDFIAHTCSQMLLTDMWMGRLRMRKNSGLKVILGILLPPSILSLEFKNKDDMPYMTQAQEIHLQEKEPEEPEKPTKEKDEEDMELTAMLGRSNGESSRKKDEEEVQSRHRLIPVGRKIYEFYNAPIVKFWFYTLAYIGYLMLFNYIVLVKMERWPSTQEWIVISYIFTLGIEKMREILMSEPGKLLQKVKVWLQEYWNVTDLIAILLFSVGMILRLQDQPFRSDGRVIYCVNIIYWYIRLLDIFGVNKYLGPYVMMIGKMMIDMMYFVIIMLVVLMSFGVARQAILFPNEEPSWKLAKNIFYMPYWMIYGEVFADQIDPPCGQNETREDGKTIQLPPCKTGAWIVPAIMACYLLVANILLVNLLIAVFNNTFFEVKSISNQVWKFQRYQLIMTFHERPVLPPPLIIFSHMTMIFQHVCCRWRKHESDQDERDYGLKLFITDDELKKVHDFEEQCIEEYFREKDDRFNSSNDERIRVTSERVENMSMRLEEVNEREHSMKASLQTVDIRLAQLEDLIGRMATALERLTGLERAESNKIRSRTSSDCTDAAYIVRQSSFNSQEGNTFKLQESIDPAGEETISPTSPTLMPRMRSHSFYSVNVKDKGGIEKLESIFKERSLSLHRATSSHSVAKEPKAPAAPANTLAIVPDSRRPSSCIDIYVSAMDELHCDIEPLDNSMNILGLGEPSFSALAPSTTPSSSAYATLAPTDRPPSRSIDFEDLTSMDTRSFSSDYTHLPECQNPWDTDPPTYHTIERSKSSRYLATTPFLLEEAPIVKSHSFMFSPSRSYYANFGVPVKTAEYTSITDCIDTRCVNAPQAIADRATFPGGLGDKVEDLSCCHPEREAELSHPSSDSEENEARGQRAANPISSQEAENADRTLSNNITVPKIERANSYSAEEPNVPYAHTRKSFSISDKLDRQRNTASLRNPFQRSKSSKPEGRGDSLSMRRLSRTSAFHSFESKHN

Usually IC50 stands for the concentration at which inhibition is half-maximal. Higher therefore signals weaker potency in that assay. Take `Cc1oc2ccc(OC(CCN(C)C)c3ccccc3)cc2c1C(=O)NC1CCNC1=O` (centres unmarked) [Cpd 224, 5-(3-(dimethylamino)-1-phenylpropoxy)-2-methyl-N-(2-oxopyrrolidin-3-yl)benzofuran-3-carboxamide]: the 50% inhibitory concentration (IC50) was > 20 µM.
The same measure for `Cc1oc2ccc(OCc3ccccc3)cc2c1C(=O)NC1CCN(CCN(C)C)CC1` [Cpd 225, 5-(benzyloxy)-N-(1-(2-(dimethylamino)ethyl)piperidin-4-yl)-2-methylbenzofuran-3-carboxamide]: 1 to 20 µM.
For `Cc1oc2ccc(OCc3c(F)cccc3F)cc2c1C(=O)NC1CCNCC1(F)F` (centres unmarked) [Cpd 226, 5-((2,6-difluorobenzyl)oxy)-N-(3,3-difluoropiperidin-4-yl)-2-methylbenzofuran-3-carboxamide] the value was < 1 µM.
For `Cc1oc2ccc(OCc3cccc(F)c3F)cc2c1C(=O)NC1CCNCC1(F)F` (centres unmarked) [Cpd 227, 5-((2,3-difluorobenzyl)oxy)-N-(3,3-difluoropiperidin-4-yl)-2-methylbenzofuran-3-carboxamide], the IC50 was < 1 µM.
For `Cc1oc2ccc(OCc3ccccc3)cc2c1C(=O)NC1CN(C(=O)OC(C)(C)C)C1` [Cpd 228, tert-butyl 3-(5-(benzyloxy)-2-methylbenzofuran-3-carboxamido)azetidine-1-carboxylate] the value was 1 to 20 µM; for `COCCCN1CCC(NC(=O)c2c(C)oc3ccc(OCc4ccccc4)cc23)CC1` [Cpd 229, 5-(benzyloxy)-N-(1-(3-methoxypropyl)piperidin-4-yl)-2-methylbenzofuran-3-carboxamide], 1 to 20 µM; for `Cc1oc2ccc(OCc3ccccc3)cc2c1C(=O)NC1CCN(c2ncccn2)CC1` [Cpd 230, 5-(benzyloxy)-2-methyl-N-(1-(pyrimidin-2-yl)piperidin-4-yl)benzofuran-3-carboxamide], < 1 µM.
The same measure for `Cc1oc2ccc(OCc3cccc(C(F)(F)F)c3)cc2c1C(=O)NC1CCN(C)CC1` [Cpd 232, 2-methyl-N-(1-methylpiperidin-4-yl)-5-((3-(trifluoromethyl)benzyl)oxy)benzofuran-3-carboxamide]: 1 to 20 µM.
Take `Cc1oc2ccc(OCc3ccccc3C(F)(F)F)cc2c1C(=O)NC1CCN(C)CC1` [Cpd 233, 2-methyl-N-(1-methylpiperidin-4-yl)-5-((2-(trifluoromethyl)benzyl)oxy)benzofuran-3-carboxamide]: the IC50 lay within 1 to 20 µM.
`Cc1oc2ccc(OCc3ccc(C(F)(F)F)cc3)cc2c1C(=O)NC1CCN(C)CC1` [Cpd 234, 2-methyl-N-(1-methylpiperidin-4-yl)-5-((4-(trifluoromethyl)benzyl)oxy)benzofuran-3-carboxamide] registered an IC50 of 1 to 20 µM.
The same measure for `Cc1oc2ccc(OCc3ccccc3)cc2c1C(=O)N[C@H]1C[C@H]2C(=O)N(C)CC(=O)N2C1` [Cpd 235, 5-(benzyloxy)-2-methyl-N-((7S,8aS)-2-methyl-1,4-dioxooctahydropyrrolo[1,2-a]pyrazin-7-yl)benzofuran-3-carboxamide]: 1 to 20 µM; for `Cc1oc2ccc(OCc3ccccc3)cc2c1C(=O)N1CCCC(C(=O)NCC(C)C)C1` (centres unmarked) [Cpd 236, 1-(5-(benzyloxy)-2-methylbenzofuran-3-carbonyl)-N-isobutylpiperidine-3-carboxamide]: > 20 µM.
The same measure for `Cc1oc2ccc(OCc3ccccc3)cc2c1C(=O)N1CCC(C(=O)OC(C)(C)C)CC1` [Cpd 237, tert-butyl 1-(5-(benzyloxy)-2-methylbenzofuran-3-carbonyl)piperidine-4-carboxylate]: > 20 µM; for `Cc1oc2ccc(OCc3ccccc3)cc2c1C(=O)N[C@@H]1CCN(C(=O)OC(C)(C)C)C1` [Cpd 238, tert-butyl (R)-3-(5-(benzyloxy)-2-methylbenzofuran-3-carboxamido)pyrrolidine-1-carboxylate]: > 20 µM; for `Cc1oc2ccc(OCc3ccccc3)cc2c1C(=O)N[C@H]1CCN(C(=O)OC(C)(C)C)C1` [Cpd 239, tert-butyl (S)-3-(5-(benzyloxy)-2-methylbenzofuran-3-carboxamido)pyrrolidine-1-carboxylate]: 1 to 20 µM.
The same measure for `Cc1oc2ccc(OCc3ccccc3C(F)(F)F)cc2c1C(=O)NC1CNCC1(F)F` (centres unmarked) [Cpd 240, N-(4,4-difluoropyrrolidin-3-yl)-2-methyl-5-((2-(trifluoromethyl)benzyl)oxy)benzofuran-3-carboxamide]: < 1 µM; for `Cc1oc2ccc(OCc3ccccc3)cc2c1C(=O)NC1CCN(Cc2ccccc2)CC1` [Cpd 241, 5-(benzyloxy)-N-(1-benzylpiperidin-4-yl)-2-methylbenzofuran-3-carboxamide]: 1 to 20 µM; for `Cc1oc2ccc(OCc3ccccc3S(C)(=O)=O)cc2c1C(=O)NC1CCN(C)CC1` [Cpd 242, 2-methyl-N-(1-methylpiperidin-4-yl)-5-((2-(methylsulfonyl)benzyl)oxy)benzofuran-3-carboxamide]: > 20 µM.
Turning to `Cc1oc2ccc(OCc3ccccc3)cc2c1C(=O)N1CCCC(c2nc(C(C)C)no2)C1` (centres unmarked) [Cpd 243, (5-(benzyloxy)-2-methylbenzofuran-3-yl)(3-(3-isopropyl-1,2,4-oxadiazol-5-yl)piperidin-1-yl)-methanone], the IC50 is > 20 µM.
The same measure for `Cc1oc2ccc(OCc3cccc(OC(F)(F)F)c3)cc2c1C(=O)NC1CCN(C)CC1` [Cpd 244, 2-methyl-N-(1-methylpiperidin-4-yl)-5-((3-(trifluoromethoxy)benzyl)oxy)benzofuran-3-carboxamide]: 1 to 20 µM; for `Cc1oc2ccc(OCc3ccccc3N3CCN(C)CC3)cc2c1C(=O)NC1CCNC1=O` (centres unmarked) [Cpd 245, 2-methyl-5-((2-(4-methylpiperazin-1-yl)benzyl)oxy)-N-(2-oxopyrrolidin-3-yl)benzofuran-3-carboxamide]: > 20 µM.
For `Cc1oc2ccc(OCc3ccccc3)cc2c1C(=O)NC1(CNC(=O)OC(C)(C)C)CCC1` [Cpd 246, tert-butyl ((1-(5-(benzyloxy)-2-methylbenzofuran-3-carboxamido)cyclobutyl)methyl)carbamate] the value was 1 to 20 µM.
The same measure for `Cc1oc2ccc(OCc3ccccc3)cc2c1C(=O)NC1CCCN(C(=O)OC(C)(C)C)C1` (centres unmarked) [Cpd 247, tert-butyl 3-(5-(benzyloxy)-2-methylbenzofuran-3-carboxamido)piperidine-1-carboxylate]: > 20 µM.
For the molecule `Cc1oc2ccc(OCc3ccccc3)cc2c1C(=O)N1CCC(NC(=O)OC(C)(C)C)CC1` [Cpd 248, tert-butyl (1-(5-(benzyloxy)-2-methylbenzofuran-3-carbonyl)piperidin-4-yl)carbamate], the IC50 was > 20 µM.
For `Cc1oc2ccc(OCc3ccccc3)cc2c1C(=O)NC1CCN(C(=O)OC(C)(C)C)CC1` [Cpd 249, tert-butyl 4-(5-(benzyloxy)-2-methylbenzofuran-3-carboxamido)piperidine-1-carboxylate] the value was 1 to 20 µM; for `Cc1oc2ccc(OCc3ccccc3OCCN(C)C)cc2c1C(=O)NC1CCN(C)CC1` [Cpd 250, 5-((2-(2-(dimethylamino)ethoxy)benzyl)oxy)-2-methyl-N-(1-methylpiperidin-4-yl)benzofuran-3-carboxamide], > 20 µM.
The same measure for `Cc1oc2ccc(OCc3ccccc3)cc2c1C(=O)NC1CCN(C(=O)OC(C)(C)C)C(C)C1` (stereo not drawn) [Cpd 252, tert-butyl cis-4-(5-(benzyloxy)-2-methylbenzofuran-3-carboxamido)-2-methylpiperidine-1-carboxylate]: 1 to 20 µM.
The same measure for `Cc1oc2ccc(OCc3ccccc3)cc2c1C(=O)NCC1CCN(C(=O)OC(C)(C)C)CC1` [Cpd 253, tert-butyl 4-((5-(benzyloxy)-2-methylbenzofuran-3-carboxamido)methyl)piperidine-1-carboxylate]: > 20 µM; for `Cc1oc2ccc(OCc3cccc(F)c3F)cc2c1C(=O)N[C@H]1CCN(C(=O)OC(C)(C)C)C1` [Cpd 256, tert-butyl (S)-3-(5-((2,3-difluorobenzyl)oxy)-2-methylbenzofuran-3-carboxamido)pyrrolidine-1-carboxylate]: 1 to 20 µM.
Consider `Cc1oc2ccc(OCc3c(F)cccc3F)cc2c1C(=O)N[C@H]1CCN(C(=O)OC(C)(C)C)C1` [Cpd 257, tert-butyl (S)-3-(5-((2,6-difluorobenzyl)oxy)-2-methylbenzofuran-3-carboxamido)pyrrolidine-1-carboxylate], for which the IC50 is 1 to 20 µM.
Consider `Cc1oc2ccc(OCc3ccccc3)cc2c1C(=O)N[C@H]1CC2CC[C@H](C1)N2C(=O)OC(C)(C)C` [Cpd 258, tert-butyl (1R,3s,5S)-3-(5-(benzyloxy)-2-methylbenzofuran-3-carboxamido)-8-azabicyclo-[3.2.1]octane-8-carboxylate], for which the IC50 is < 1 µM.
For `Cc1oc2ccc(OCc3ccccc3)cc2c1C(=O)N[C@H]1C[C@@H]2CN(C(=O)OC(C)(C)C)C[C@@H]2C1` [Cpd 259, tert-butyl trans-5-(5-(benzyloxy)-2-methylbenzofuran-3-carboxamido)hexahydrocyclopenta-[c]pyrrole-2(1H)-carboxylate] the value was 1 to 20 µM; for `Cc1oc2ccc(OCc3ccccc3COC3CCCCO3)cc2c1C(=O)NC1CCN(C)CC1` (centres unmarked) [Cpd 260, 2-methyl-N-(1-methylpiperidin-4-yl)-5-((2-(((tetrahydro-2H-pyran-2-yl)oxy)methyl)benzyl)oxy)benzofuran-3-carboxamide], 1 to 20 µM.
In the case of `Cc1oc2ccc(OCc3cccc(CNC(=O)OC(C)(C)C)c3)cc2c1C(=O)NC1CCNC1=O` (centres unmarked) [Cpd 261, tert-butyl (3-(((2-methyl-3-((2-oxopyrrolidin-3-yl)carbamoyl)benzofuran-5-yl)oxy)methyl)-benzyl)carbamate], the IC50 is > 20 µM.
For `Cc1oc2ccc(OCc3ccccc3)cc2c1C(=O)NC1(CO)CCN(C(=O)OC(C)(C)C)CC1` [Cpd 262, tert-butyl 4-(5-(benzyloxy)-2-methylbenzofuran-3-carboxamido)-4-(hydroxymethyl)piperidine-1-carboxylate] the value was 1 to 20 µM.
